26 compounds from US20050009840A1 (SUGEN, INC., priority 2003, published 2005) can be followed below.

Bounds are passed on as bounds.

T1 sequence (P08581 1078-1345 limits assumed): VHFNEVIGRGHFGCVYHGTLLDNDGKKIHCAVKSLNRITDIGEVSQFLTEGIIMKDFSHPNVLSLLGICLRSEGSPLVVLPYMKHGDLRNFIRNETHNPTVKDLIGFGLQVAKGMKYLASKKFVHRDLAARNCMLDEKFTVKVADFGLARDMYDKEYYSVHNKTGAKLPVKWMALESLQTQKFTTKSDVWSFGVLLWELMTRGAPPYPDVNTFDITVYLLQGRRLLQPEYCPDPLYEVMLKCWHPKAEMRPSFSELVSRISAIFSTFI

One test has as its target T1, Met kinase domain (GST fusion protein) (Homo sapiens, UniProt P08581).
T1 construct: Purified GST fusion protein containing the Met kinase domain
In words: Met transphosphorylation assay (ELISA, poly(glu-tyr) substrate).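 Note: Cell-free ELISA with plate-bound poly(Glu:Tyr 4:1) phosphorylated by GST-fused Met kinase domain plus ATP and Mn2+, phosphotyrosine detected by anti-phosphotyrosine antibody with HRP and ABTS read-out.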 Format: biochemical. Conditions: Met IC50. A general note: In an ELISA, binding on a coated surface is turned into a signal by an enzyme label.
The IC50 is the concentration at which inhibition is half-maximal. `N#Cc1ccccc1COc1cc(-c2ccccc2)cnc1N` [Example I-97, 2-(2-Amino-5-phenyl-pyridin-3-yloxymethyl)-benzonitrile] showed an IC50 of 12.2 µM.

The same test, now with this note: Table 2; read-out: Met IC50.
`Nc1ncc(-c2ccc(NS(=O)(=O)CCN3CC[C@@H](O)C3)cc2)cc1OCc1c(F)ccc(F)c1Cl` [Example I-252, 2-[(3R)-3-Hydroxy-pyrrolidin-1-yl]-ethanesulfonic acid {4-[6-amino-5-(2-chloro-3,6-difluoro-benzyloxy)-pyridin-3-yl]-phenyl}-amide]: the IC50 was 0.125 µM.
Still for that read-out and setting: under `Nc1ncc(-c2ccc(N3CCCS3(=O)=O)cc2)cc1OCc1c(Cl)cccc1Cl` [Example I-241] stands 0.067 µM.
The same measure, in the same setting: under `CC(Oc1cc(-c2ccc(C(=O)NCCN3CCOCC3)cc2)cnc1N)c1c(Cl)ccc(F)c1Cl` (centres unmarked) [Example I-302, 4-{6-Amino-5-[1-(2,6-dichloro-3-fluoro-phenyl)-ethoxy]-pyridin-3-yl}-N-(2-morpholin-4-yl-ethyl)-benzamide] stands 0.071 µM.

Still in this test, the particulars now being: plain numbers in column Met IC50 (μM) of Table 2; read-out: Met IC50.
As to `CC(Oc1cc(-c2cccnc2)cnc1N)c1c(F)ccc(F)c1Cl` (centres unmarked) [Example I-525, 5-[1-(2-Chloro-3,6-difluoro-phenyl)-ethoxy]-[3,3′]bipyridinyl-6-ylamine], the IC50 was determined as 0.0777 µM.
In the case of `CC(Oc1cc(-c2cccc(C(=O)N3CCN(C)CC3)n2)cnc1N)c1c(Cl)ccc(F)c1Cl` (centres unmarked) [Example I-512, {6′-Amino-5′-[1-(2,6-dichloro-3-fluoro-phenyl)-ethoxy]-[2,3′]bipyridinyl-6-yl}-(4-methyl-piperazin-1-yl)-methanone], the IC50 was 0.0629 µM.
On the same count and under the same terms, the value for `CC(Oc1cc(-c2ccc(N)nc2)cnc1N)c1c(F)ccc(F)c1Cl` (centres unmarked) [Example I-516, 5-[1-(2-Chloro-3,6-difluoro-phenyl)-ethoxy]-[3,3′]bipyridinyl-6,6′-diamine] was 0.0393 µM; that for `CC(Oc1cc(-c2ccccn2)cnc1N)c1c(F)ccc(F)c1Cl` (centres unmarked) [Example I-524, 5′-[1-(2-Chloro-3,6-difluoro-phenyl)-ethoxy]-[2,3′]bipyridinyl-6′-ylamine] was 0.612 µM; that for `CC(Oc1cc(-c2ccc(C(=O)NC3CCN(C)CC3)cc2)cnc1N)c1c(Cl)cccc1Cl` (centres unmarked) [Example I-403, 4-{6-Amino-5-[1-(2,6-dichloro-phenyl)-ethoxy]-pyridin-3-yl}-N-(1-methyl-piperidin-4-yl)-benzamide] was 0.062 µM.
Still for that read-out and setting: the value for `CCC(CC)COc1cnc(N)c(OC(C)c2c(F)ccc(F)c2Cl)c1` (centres unmarked) [Example I-530, 3-[1-(2-Chloro-3,6-difluoro-phenyl)-ethoxy]-5-(2-ethyl-butoxy)-pyridin-2-ylamine] was 4.08 µM.

Staying with this test, now noted: read-out: Met IC50.
`Nc1ncc(-c2cccc(NS(=O)(=O)CCNCC3CC3)c2)nc1OCc1c(F)ccc(F)c1Cl` [II-30, 2-(Cyclopropylmethyl-amino)-ethanesulfonic acid {3-[5-amino-6-(2-chloro-3,6-difluoro-benzyloxy)-pyrazin-2-yl]-phenyl}-amide]: the IC50 amounted to 1.84 µM.
Regarding `CC(=O)N[C@H]1CCN(Cc2c[nH]c3ccc(-c4cnc(N)c(OCc5c(F)ccc(F)c5Cl)n4)cc23)C1` [II-66, N-(1-{5-[5-Amino-6-(2-chloro-3,6-difluoro-benzyloxy)-pyrazin-2-yl]-1H-indol-3-ylmethyl}-(3S)-pyrrolidin-3-yl)-acetamide], the IC50 stood at 0.55 µM.
With `CC(Oc1nc(-c2ccc(C(=O)NC[C@@H](O)CN3CCOCC3)cc2)cnc1N)c1c(Cl)ccc(F)c1Cl` (stereo partly drawn) [II-149, 4-{5-Amino-6-[1-(2,6-dichloro-3-fluoro-phenyl)-ethoxy]-pyrazin-2-yl}-N-((R)-2-hydroxy-3-morpholin-4-yl-propyl)-benzamide], the IC50 was found to be 0.13 µM.
As for `Nc1ncc(-c2ccc(CO)cc2)cc1OCc1c(Cl)cccc1Cl` [Example I-27, {4-[6-Amino-5-(2,6-dichloro-benzyloxy)-pyridin-3-yl]-phenyl}-methanol], the IC50 is 2.5 µM.
As for `Nc1ncc(-c2cccc(NS(=O)(=O)CCN3CC[C@@H](O)C3)c2)nc1OCc1c(F)ccc(F)c1Cl` [II-31, 2-[(3R)-3-Hydroxy-pyrrolidin-1-yl]-ethanesulfonic acid {3-[5-amino-6-(2-chloro-3,6-difluoro-benzyloxy)-pyrazin-2-yl]-phenyl}-amide], the IC50 came to 2.16 µM.
Turning to `Nc1ncc(-c2ccc(C(=O)NCCCN3CCOCC3)cc2)cc1OCc1c(F)cccc1Cl` [Example I-149, 4-[6-Amino-5-(2-chloro-6-fluoro-benzyloxy)-pyridin-3-yl]-N-(3-morpholin-4-yl-propyl)-benzamide], the IC50 is 5.6 µM.
On the same count and under the same terms, under `Nc1ncc(-c2ccc(C(=O)N3CC[C@H](N)C3)cc2)cc1OCc1c(F)cccc1Cl` [Example I-145, {4-[6-Amino-5-(2-chloro-6-fluoro-benzyloxy)-pyridin-3-yl]-phenyl}-[(3S)-3-amino-pyrrolidin-1-yl]-methanone] stands 0.63 µM; under `Nc1ncc(-c2ccc(OCC(=O)O)cc2)cc1OCc1c(Cl)cccc1Cl` [Example I-55, {4-[6-Amino-5-(2,6-dichloro-benzyloxy)-pyridin-3-yl]-phenoxy}-acetic acid], 2.41 µM; under `Nc1ncc(-c2ccc(NS(=O)(=O)CCNC3CC3)cc2)nc1OCc1c(F)ccc(F)c1Cl` [II-20, 2-Cyclopropylamino-ethanesulfonic acid {4-[5-amino-6-(2-chloro-3,6-difluoro-benzyloxy)-pyrazin-2-yl]-phenyl}-amide], 1.29 µM.
Turning to `CC(Oc1nc(-c2cccc(C(=O)N3CCN(C)CC3)c2)cnc1N)c1c(Cl)ccc(F)c1Cl` (centres unmarked) [II-130, (3-{5-Amino-6-[1-(2,6-dichloro-3-fluoro-phenyl)-ethoxy]-pyrazin-2-yl}-phenyl)-(4-methyl-piperazin-1-yl)-methanone], the IC50 amounted to 0.17 µM.
Consider `CS(=O)(=O)Nc1cccc(COc2cc(-c3ccccc3)cnc2N)c1` [Example I-105, N-[3-(2-Amino-5-phenyl-pyridin-3-yloxymethyl)-phenyl]-methanesulfonamide], for which the IC50 was > 20 µM.
For `CC(C)c1cccc(-c2cnc(N)c(OCc3c(Cl)cccc3Cl)c2)c1` [Example I-22, 3-(2,6-Dichloro-benzyloxy)-5-(3-isopropyl-phenyl)-pyridin-2-ylamine], the IC50 came out at 15.9 µM.
Same read-out and setting: under `Nc1ncc(-c2cccc(OC(F)(F)F)c2)cc1OCc1c(Cl)cccc1Cl` [Example I-18, 3-(2,6-Dichloro-benzyloxy)- -5-(3-trifluoromethoxy-phenyl)-pyridin-2-ylamine] stands > 20 µM; under `CC(Oc1nc(-c2ccc(C(=O)N3CCC[C@H]3CN3CCCC3)cc2)cnc1N)c1c(Cl)cccc1Cl` (stereo partly drawn) [II-162, (4-{5-Amino-6-[1-(2,6-dichloro-phenyl)-ethoxy]-pyrazin-2-yl}-phenyl)-((S)-2-pyrrolidin-1-ylmethyl-pyrrolidin-1-yl)-methanone], 0.14 µM; under `Nc1ncc(-c2cccc3[nH]ccc23)cc1OCc1c(Cl)cccc1-c1cccc2[nH]ccc12` [Example I-5, 3-[2-Chloro-6-(1H-indol-4-yl)-benzyloxy]-5-(1H-indol-4-yl)-pyridin-2-ylamine], 4.71 µM.
Still for that read-out and setting: the value for `CC(C)(C)c1ccc(COc2cc(-c3ccc(O)cc3)cnc2N)cc1` [Example I-134, 4 [6-Amino-5-(4-teert-butyl-benzyloxy)-pyridin-3-yl]-phenol] was 4 µM.
